# Reference: ChEMBL document CHEMBL3988442, “University of Dundee, Small-Polar-MMV Screening Library” (2021)
# Tests used:
# [1] = microbe, parasite or virus in culture; conditions: Mycobacterium tuberculosis, 72 h, read-out: pIC50 (converted)
# [2] = microbe, parasite or virus in culture; conditions: Mycobacterium tuberculosis, 96 h, read-out: pIC50 (converted)
SMILES,IC50 [1],IC50 [2]
c1cc2c(cc1C1=NN=C(NC3CC3)SC1)OCCO2,158 µM,160 µM
c1ccc(C2=NN=C(NC3CC3)SC2)cc1,230 µM,140 µM
Cc1cc(Cl)ccc1NC(=O)CSc1n[nH]c(N)n1,> 501 µM,> 501 µM
Cc1ccccc1-n1nnnc1SCC(=O)NC1CC1,199 µM,> 501 µM
NCCSCc1ccccc1F,231 µM,275 µM
Cc1c(C(=O)NCC(N)=O)oc2ccc(Cl)cc12,102 µM,218 µM
C=C(C)CN1CCN(c2ccccn2)CC1,> 501 µM,> 501 µM
CC(=O)NCC1CNCCO1 (stereo not drawn),> 501 µM,> 501 µM
NCCn1cc(C(=O)NCCSC2CCCCC2)nn1,178 µM,129 µM
COc1ccc(C(C)CO)cc1 (stereo not drawn),> 501 µM,> 501 µM
CCc1ccc(CN(C)C(=O)c2cccn2C)nc1,175 µM,257 µM
CC(C)c1cccc(S(=O)(=O)N2CCCC2CN)c1 (stereo not drawn),399 µM,> 501 µM
CO[C@H]1CNCC1NC(=O)c1cc2ccccc2n1C (stereo partly drawn),359 µM,> 501 µM
CN1CCOC(C(=O)Nc2ncc(Cl)s2)C1 (stereo not drawn),361 µM,296 µM
CC(CO)(CO)NC(=O)c1cnc(-c2cccs2)s1,> 501 µM,> 501 µM
O=C(COC(=O)c1ccccn1)Nc1ccccc1,234 µM,> 501 µM
CC(=O)N1CCC(CN(C)Cc2ccc(Br)o2)C1 (stereo not drawn),> 501 µM,> 501 µM
CCS(=O)(=O)c1ccc(CNc2ncccc2Cl)cc1,242 µM,> 501 µM
NCCNS(=O)(=O)c1ccc(F)c(C(F)(F)F)c1,476 µM,> 501 µM
Cc1ccc(S(=O)(=O)N2CCOc3ccncc32)cc1,99.3 µM,457 µM
N#Cc1cc(Br)ccc1NCCC(=O)N1CCOCC1,165 µM,> 501 µM
CSc1ccc(CC(=O)N(C)Cc2ccon2)cc1,> 501 µM,> 501 µM

SMILES,IC50 [1],IC50 [2]
O=C1CN(CC(=O)N2CCCCCCC2)CCN1,> 501 µM,> 501 µM
Fc1ccc(Cn2ccnn2)c(Cl)c1,> 501 µM,> 501 µM
CNC(=O)CSc1nnnn1-c1ccc(C(C)C)cc1,120 µM,134 µM
CC(C)(C)OC(=O)N1CC(F)(F)CC1CO (stereo not drawn),> 501 µM,> 501 µM
CC(=O)NCCCNCc1ccc(Br)c2cccnc12,278 µM,> 501 µM
O=C(CN1CCNCC1)c1ccco1,239 µM,186 µM
CCOc1cccc(CSc2nc(=O)ccn2CC)n1,460 µM,> 501 µM
CS(=O)(=O)N1CCC(NCCSc2cnn[nH]2)CC1,> 501 µM,> 501 µM
Clc1cnc(NCCNCc2cc[nH]n2)c(Cl)c1,227 µM,> 501 µM
Cc1ccc(C2(O)CCNC2)cc1 (stereo not drawn),181 µM,> 501 µM
CC(C)c1ccc2c(c1)C(N)C(=O)N2 (stereo not drawn),> 501 µM,> 501 µM
COc1ccc(C(=O)NCCSc2cnn[nH]2)cc1F,> 501 µM,> 501 µM
N#Cc1ccccc1CN1CCCC1CO (stereo not drawn),129 µM,176 µM
COc1cccc(NC(CN)c2ccccc2)c1 (stereo not drawn),187 µM,> 501 µM
Cc1cccc(OCC(O)CNc2ncccc2F)c1 (stereo not drawn),19.7 µM,11.6 µM
COc1ccc(CN2C[C@H](O)[C@@H](N(C)C)C2)c(C)c1C,105 µM,349 µM
CC(C)c1cc(C(=O)N2CC[C@@H](N)C2)nn1C(C)(C)C,> 501 µM,> 501 µM
CCOC(C(=O)N(C)CC(N)=O)c1ccccc1 (stereo not drawn),> 501 µM,> 501 µM
COC(=O)COc1ccc(C(C)=O)cc1Cl,264 µM,354 µM
CN1CC(=O)Nc2cccnc21,157 µM,314 µM
CC(N)c1noc(-c2ccc(Cl)cc2)n1 (stereo not drawn),261 µM,375 µM
O=C(Cc1cn2ccsc2n1)NCC1CCC1,282 µM,179 µM

SMILES,IC50 [1],IC50 [2]
CCC(N)C(=O)Nc1ccc2c(c1)C(=O)CCC2 (stereo not drawn),163 µM,137 µM
CCC1c2ccsc2CCN1CC(=O)NC (stereo not drawn),> 501 µM,> 501 µM
CN(C)C(=O)CN1CCOC(CCc2ccccc2)C1 (stereo not drawn),> 501 µM,> 501 µM
COc1ccnc(NCCS(=O)(=O)c2ccccc2)n1,> 501 µM,> 501 µM
NC(=O)C1CCN(C(=O)COc2ccc(F)cc2Br)C1 (stereo not drawn),> 501 µM,> 501 µM
CCCSc1ccc(NC(=O)NCCN)cc1,187 µM,233 µM
CCNC(=O)c1cc(N2CCC(COC)CC2)ccn1,125 µM,> 501 µM
COc1cccc(Cl)c1CN1CCCNCC1,228 µM,251 µM
CCOC(=O)c1cnn(-c2ccc(OCC)cc2)c1N,81.7 µM,53.9 µM
CC(N)C(=O)N1CCC(Oc2ccccc2Cl)CC1 (stereo not drawn),288 µM,227 µM
Cc1cccc(C(=O)NCc2cccc(O)c2)n1,172 µM,489 µM
CN(C(=O)CN)c1ccc(-c2ccccc2)cc1,305 µM,260 µM
COc1ccc(C(=O)NC(C)Cn2cccn2)c(O)c1 (stereo not drawn),256 µM,276 µM
COc1ccc(OC)c(NC(=O)COCC(F)(F)F)c1,227 µM,> 501 µM
COc1cccc(CS(=O)(=O)Nc2ccc(C)nc2)c1,307 µM,> 501 µM
CN(Cc1cccc(F)c1)C(=O)c1cnccn1,> 501 µM,> 501 µM
CNC(=O)CNC(=O)c1cc2ccccc2cc1OC,> 501 µM,> 501 µM
CC(C)CCNC(=O)Nc1ccc(S(C)(=O)=O)cc1,162 µM,127 µM
Cc1nnc(SCCCNC(=O)c2cc(Cl)c[nH]2)s1,121 µM,119 µM
Cc1ccc2c(c1)nc(CN)n2C,231 µM,348 µM
CC(C)Oc1ccc(CNC(=O)N2CCCC2)cn1,126 µM,118 µM
O=C(NC1CCCNC1)c1coc2ccccc12 (stereo not drawn),> 501 µM,> 501 µM

SMILES,IC50 [1],IC50 [2]
CN(Cc1cnn(C)c1)C(=O)c1cc(Br)c[nH]1,95.2 µM,> 501 µM
CC(N)Cc1nc(-c2ccccc2)no1 (stereo not drawn),173 µM,115 µM
O=C(NCC(O)c1ccc(F)cc1)Nc1cnns1 (stereo not drawn),> 501 µM,> 501 µM
CC(=O)Nc1nc(COc2ccc(C)cn2)cs1,237 µM,244 µM
CS(=O)(=O)NCCc1csc(N2CCCC2)n1,132 µM,> 501 µM
CCOC(=O)c1cccnc1NCc1cnn(C)c1C,180 µM,> 501 µM
Cc1ccc2[nH]c(CN)nc2c1C,246 µM,> 501 µM
Cc1ccc(S(=O)(=O)CCC(=O)NC(N)=O)cc1,155 µM,> 501 µM
COCC1CCN(C(=O)c2cc(C3CC3)on2)CC1,> 501 µM,26.5 µM
C=C(Br)Cn1c(CO)nc2ccccc21,> 501 µM,> 501 µM
CN(C)c1nccc(CNc2ccc(C#N)nc2)n1,128 µM,249 µM
NCCCOc1ncc(C(F)(F)F)cc1Cl,101 µM,238 µM
Cc1ccc(C(C)NC(=O)Nc2nccn(C)c2=O)o1 (stereo not drawn),> 501 µM,> 501 µM
COc1ccc([C@H]2C[C@H](N)C2)cc1F,95 µM,60.7 µM
Cc1nnc(SCCN)s1,> 501 µM,> 501 µM
Cc1ccc(OC2CN(C(=O)[C@H](N)C(C)C)C2)cc1,393 µM,236 µM
FC(F)Oc1cccc(C2CNCCO2)c1 (stereo not drawn),34 µM,112 µM
CNC(=O)CSCc1nc(-c2ccccc2C)no1,134 µM,156 µM
CCc1ccc(C(=O)CSc2nnc(N)[nH]2)cc1,176 µM,449 µM
OCCCNC(c1ccccc1)c1ccccn1 (stereo not drawn),> 501 µM,> 501 µM
COc1cccc(OC2CNC2)c1,> 501 µM,> 501 µM
COc1ccc2c(c1)CCN2C(=O)C(C)(C)C#N,156 µM,293 µM

SMILES,IC50 [1],IC50 [2]
COc1cc(OC)c(NC(=O)Cn2ccnc2)cc1Cl,243 µM,264 µM
NC1(c2nc(-c3ccccc3)c[nH]2)CCCC1,176 µM,258 µM
CNC(=O)CCN1CCC(=Cc2ccccc2)CC1,258 µM,> 501 µM
Cc1nc(C(=O)NCCN2CCCC2)c(C)s1,308 µM,> 501 µM
COc1ccnc(NC(=O)NCc2cccs2)c1,90.3 µM,119 µM
CC(C)CCOCCSc1nnnn1C,155 µM,82.3 µM
COc1ccc(C(N)c2ccc(OC)cc2OC)cc1 (stereo not drawn),186 µM,291 µM
Cc1ccc(CNC(=O)c2cnn(C)c2)cc1F,275 µM,> 501 µM
Cc1ccc(C(=O)CCN2CCOCC2C(N)=O)cc1 (stereo not drawn),59 µM,152 µM
O=C(c1cc(C2CC2)on1)N1CCC2(CCOCC2)C1,20.5 µM,25.4 µM
CC(CN)c1nc(-c2ccccc2)no1 (stereo not drawn),179 µM,410 µM
O=C(Cn1ccc(C(F)(F)F)n1)NCc1ccco1,> 501 µM,> 501 µM
Cn1cc(NC(=O)c2ccc(Br)s2)cc1C(N)=O,341 µM,285 µM
O=C(Cn1cccn1)NCCc1ccc2c(c1)OCO2,251 µM,> 501 µM
Cc1ccc2nc(CCN)oc2c1,78.4 µM,23.3 µM
CCC(CO)Nc1nccc(C(F)(F)F)n1 (stereo not drawn),> 501 µM,> 501 µM
CN(Cc1ccc(Cl)s1)C(=O)C1CCN(C(N)=O)CC1,> 501 µM,> 501 µM
Cc1cccnc1NCCNC1CSCCSC1,248 µM,> 501 µM
NS(=O)(=O)c1ccc(F)c(C(=O)Nc2ccccc2)c1,262 µM,> 501 µM
COc1ccc(CCN2CCCNCC2)cc1,73.3 µM,159 µM
FC(F)(F)c1cccc(NCc2cccnc2)n1,85.5 µM,275 µM
